Holding throughout (assay): NCI anticancer screen, dose series, 48 h
For assay [1], the system named is K-562 leukemia.
Assay [2] has as its system SK-MEL-5 melanoma.
Assay [3] relates to MCF7 breast.
In assay [4] the test system is OVCAR-3 ovarian.
In assay [5] the test system is SF-539 CNS.
The test system of assay [6] is HOP-62 NSCLC.
Assay [7] relates to COLO 205 colon.
Assay [8] has as its system SW-620 colon.
Assay [9] relates to BT-549 breast.
Assay [10] relates to SNB-75 CNS.

Among the data in PubChem BioAssay (NCI) are TGI and GI50 values, retold here.

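Where inhibition never reached the appropriate level, the endpoint shown equals the highest concentration tested. Otherwise, values were interpolated linearly from a five-concentration, 48-hour dose response in 96-well plates. GI50 = concentration required for 50% inhibition of growth. TGI marks complete inhibition of growth.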

For `CCc1ccccc1NC(=O)/C=C/c1ccccc1`, the TGI in assay [1], in [2], in assay [3], in assay [4], in [5] and in assay [6] was above 100 µM each time. The TGI in [7], in assay [8], in assay [9] and in assay [10] was above 100 µM throughout.

In the case of `Cc1ccc2nc(-c3ccc(OCC(=O)N=Nc4c(O)[nH]c5ccccc45)cc3)[nH]c2c1`, the GI50 in assay [1] is 2.43 µM; in assay [2], 11.9 µM; in assay [3], 1.85 µM; in [4], 1.97 µM; in assay [5] it was 3.51 µM; in [6], 19 µM. In addition, the GI50 in assay [7] is 4.03 µM; in assay [8] it was 2.02 µM; in [9] it was 45.1 µM; in [10], 13 µM. In addition, the TGI in assay [1] was found to be 9.44 µM; in [2], 56.1 µM; in assay [3], 3.96 µM; in assay [4] it was 3.79 µM; in assay [5] it was 13.9 µM; in assay [6], 45.4 µM. The TGI is above 100 µM in assay [7], 4.32 µM in [8], above 100 µM in assay [9] and 38.5 µM in [10].

With `CCN(Cc1cc(F)ccc1F)c1ccc(CO)c(Cl)c1`, the GI50 in assay [1] was 0.617 µM; in [2], 10.8 µM; in assay [3] it was 0.181 µM; in assay [4] it was 0.238 µM; in assay [5], 15.2 µM; in assay [6] it was 1.35 µM. Also, the GI50 is 2.17 µM in assay [7], 0.554 µM in [8], 15.4 µM in assay [9] and 10.4 µM in assay [10]. Moreover, the TGI came out at 20.9 µM in assay [1]; 22.9 µM in assay [2]; 12.7 µM in assay [3]; 0.861 µM in assay [4]; 30.4 µM in [5]; 20.5 µM in assay [6]. The TGI in assay [7] was 6.72 µM; in assay [8], 20.5 µM; in [9], 30.8 µM; in assay [10] it was 35.6 µM.

Take `O=C1C2=C(C(=O)c3cnccc31)C1C=CC2CC1` (centres undefined): the GI50 in [1] is 1.64 µM; in [2], 1.84 µM; in assay [3], 1.81 µM; in [4], 1.85 µM; in assay [5], 2.27 µM; in [6], 2.91 µM. Also, the GI50 in [7] was 2.32 µM; in [8] it was 1.85 µM; in [9], 5.86 µM; in [10] it was 1.34 µM. Further, the TGI was 3.85 µM in assay [2]; 3.74 µM in assay [3]; 3.66 µM in assay [4]; 4.5 µM in assay [5]; 6.6 µM in assay [6]; 4.62 µM in assay [7]. Further, the results for the TGI in [8], in assay [9] and in [10] were 3.44 µM, 10.3 µM and 2.73 µM, respectively.

Consider `CC(C)c1nc(N(C)S(C)(=O)=O)nc(-c2ccc(F)cc2)c1/C=C/[C@@H](O)C[C@@H](O)CC(=O)O`, for which the GI50 was above 100 µM in assay [1]; 52.7 µM in [2]; above 100 µM in [3]; above 100 µM in assay [4]; above 100 µM in assay [5]; above 100 µM in [6]. Moreover, the GI50 in assay [7] was above 100 µM; in assay [8] it was above 100 µM; in [9], above 100 µM; in [10] it was 18.5 µM. For the same molecule, the TGI in [1], in assay [2], in [3], in assay [4], in assay [5] and in assay [6] was above 100 µM each time. Moreover, the TGI in [7] is above 100 µM; in assay [8] it was above 100 µM; in [9], above 100 µM; in assay [10], above 77.5 µM.

As for `CCN1CCN(Cc2ccc(NC(=O)Nc3nc4ccc(Oc5ccnc(C(=O)NC)c5)cc4s3)cc2C(F)(F)F)CC1`, the GI50 is 0.0514 µM in assay [1]; 1.52 µM in assay [2]; 1.23 µM in [3]; 1.89 µM in assay [4]; 1.54 µM in assay [5]; 1.95 µM in assay [6]. The GI50 is 1.8 µM in assay [7], 2.07 µM in assay [8], 2.32 µM in assay [9] and 1.37 µM in [10]. Besides, the TGI in assay [1] amounted to 1.27 µM; in [2], 2.9 µM; in assay [3] it was 2.89 µM; in assay [4], 3.59 µM; in [5] it was 2.97 µM; in assay [6], 3.78 µM. Besides, the TGI turned out to be 3.39 µM in assay [7], 3.87 µM in [8], 4.25 µM in [9] and 2.73 µM in [10].

As for `CCOc1ccc(/C(C=O)=C(\Cl)c2ccc(OC)cc2)cc1`, the TGI in assay [1], in [2], in [3], in [4], in assay [5] and in assay [6] was above 100 µM in each case. Also, the TGI in assay [7], in [8], in assay [9] and in assay [10] was above 100 µM in each case.
